Laboratory results: patent publication US20140350081A1, “INSECT G-COUPLED RECEPTORS USEFUL AS TARGETS FOR INSECTICIDES AND COMPOUNDS AND REAGENTS IDENTIFIED USING THE SAME” (priority 2011, published 2014)
Like-named read-outs stand apart in the source and are kept apart here.

Columns and labels:
[1] = biological target: T1, Isdop1 (Ixodes scapularis, UniProt A0ACM8FJJ0); assay: cAMP accumulation in HEK 293 cells transiently expressing Isdop1; assay type: cell-based
[2] = biological target: T2, Isdop2 (Ixodes scapularis, UniProt A0ACM8DGL0); assay: cAMP accumulation in HEK 293 cells transiently expressing Isdop2; assay type: cell-based
[3] = biological target: T3, AaDOP2 (Aedes aegypti, UniProt H6D5H2); assay: LOPAC1280 antagonist screen in HEK-CRELuc-Aadop2 cells; assay type: cell-based
[4] = biological target: T3, AaDOP2; assay: HTRF cAMP accumulation concentration response assay (Cisbio Dynamic 2); assay type: cell-based; details: AaDOP2 expressing cells in the presence of dopamine; No Inhibition = <10% inhibition at 3 μM test compound; read-out: IC50 ± S.E.M. (nM), HTRF cAMP assay
[5] = system: Ae. aegypti L3 larvae; assay: Ae. aegypti L3 concentration response and time course assays; assay type: in vivo, Aedes aegypti; details: for LT50: 400 μM, L3 larval time course assay
Protocol: Briefly, chemistries were diluted to appropriate concentration in water and added to the wells of 24-well plates containing 5 L3 stage Ae. aegypti larvae to achieve a final concentration of 400, 200, 100, 50 and 25 μM in 1 ml sterile RO water. Chemistries were tested in quadruplicate at each concentration. […] Results reported here represent a minimum of three independent CRC experiments (i.e., n=3).

[6] = system: adult male Blatella germanica; assay: Cockroach contact assay (topical application); assay type: in vivo; details: 200 mM compound
Excerpt: (§1) A series of whole organism bioassays was developed to further evaluate the toxicity of chemistries to a range of agricultural, veterinary and public health pests and non-target insects (Tables 12 and 13). These assays are designed to rapidly explore the biological activity spectrum of chemistries as well as to facilitate initial investigations of the mode of action of insecticidal compounds. Briefly, assays were developed for the German cockroach (Blatella germanica, urban pest), termite (Reticulitermes flavipes; urban pest), lone star tick (Amblyomma americana; veterinary and public health pest), soybean aphid (Aphis glycines, agricultural pest) and honeybee (Apis mellifera; beneficial, non-target insect). The assays were designed to test the toxicity and speed of kill of multiple chemistries on contact. Each of these assays was performed as a single point dose experiment in triplicate using either topical application of compound to the ventral thorax ([…]; 50-80 μg effective dose depending on compound) as is the case for our cockroach and honeybee assays, or 10 second immersion in a solution of the compound diluted in water or DMSO:EtOH to a final concentration of 100 μM. The assays were conducted in 24-well plate format with mortality assessment following incubation at 22° C. as described above. Commercial insecticides were incorporated in these assays to provide a positive control and permit initial comparative analyses. Lead chemistries identified in our in vivo screen have been evaluated in the cockroach and termite assays.

[7] = system: adult Reticulitermes flavipes; assay: Termite immersion assay; assay type: in vivo; details: in vivo
Excerpt: A series of whole organism bioassays was developed to further evaluate the toxicity of chemistries to a range of agricultural, veterinary and public health pests and non-target insects (Tables 12 and 13). These assays are designed to rapidly explore the biological activity spectrum of chemistries as well as to facilitate initial investigations of the mode of action of insecticidal compounds. Briefly, assays were developed for the German cockroach (Blatella germanica, urban pest), termite (Reticulitermes flavipes; urban pest), lone star tick (Amblyomma americana; veterinary and public health pest), soybean aphid (Aphis glycines, agricultural pest) and honeybee (Apis mellifera; beneficial, non-target insect). The assays were designed to test the toxicity and speed of kill of multiple chemistries on contact. Each of these assays was performed as a single point dose experiment in triplicate using either topical application of compound to the ventral thorax (1 μl of a […] compound solution in 1:1 v:v DMSO:EtOH vehicle; 50-80 μg effective dose depending on compound) as is the case for our cockroach and honeybee assays, or 10 second immersion in a solution of the compound diluted in water or DMSO:[…] The assays were conducted in 24-well plate format with mortality assessment following incubation at 22° C. as described above. Commercial insecticides were incorporated in these assays to provide a positive control and permit initial comparative analyses. Lead chemistries identified in our in vivo screen have been evaluated in the cockroach and termite assays.

[8] = system: adult male Blatella germanica; assay: Cockroach assay of Table 16 (title contact assay, text feeding assay); assay type: in vivo; details: 200 mM compound
Excerpt: as §1

[9] = biological target: T2, Isdop2; assay: cell-based; details: read-out: % Inhibition (of response to dopamine), Isdop2 screen
[10] = system: Ae. aegypti L3 larvae; assay: whole plant or invertebrate; details: Aedes aegypti
[11] = biological target: AaDOP1 (Aedes aegypti, UniProt H6D5H1); assay: CRELuc reporter dose-response in HEK293 cells stably expressing AaDOP1; assay type: cell-based; details: HEK293 cells stably expressing CRELuc reporter and AaDOP1
[12] = biological target: T3, AaDOP2; assay: CRELuc reporter dose-response in HEK293 cells stably expressing AaDOP2; assay type: cell-based; details: HEK293 cells stably expressing CRELuc reporter and AaDOP2, read-out: EC50 values AaDOP2
[13] = biological target: T3, AaDOP2; assay: AaDOP2 agonist screen against the LOPAC1280 library; assay type: cell-based; details: 10 μM compound; percent of response to 1 μM dihydrexidine
[14] = biological target: T1, Isdop1; assay: cAMP accumulation confirmation assay, cells stably expressing Isdop1; assay type: cell-based
[15] = biological target: T2, Isdop2; assay: cAMP accumulation confirmation assay, cells stably expressing Isdop2; assay type: cell-based
[16] = system: Ae. aegypti L3 larvae; details: 400 μM, three independent experiments
[17] = 10 μM biogenic amine, 300 nM propranolol, cAMP accumulation, mean±standard error
[18] = 0.5 h, read-out: mortality of the mosquito population within 30 minutes, 400 μM, L3 larvae
[19] = 0.5 h, read-out: percent mortality 0.5 hr, 400 uM, L3 larvae, value for this scoring time
[20] = 1 h, read-out: percent mortality 1 hr, 400 uM, L3 larvae, per scoring time
[21] = 2 h, read-out: percent mortality 2 hr, 400 uM, L3 larvae, per scoring time
[22] = 3 h, read-out: percent mortality 3 hr, 400 uM, L3 larvae, per scoring time
[23] = 4 h, read-out: percent mortality 4 hr, 400 uM, L3 larvae, per scoring time
[24] = 24 h, read-out: percent mortality 24 hr, 400 uM, L3 larvae, per scoring time
[25] = 48 h, read-out: Toxicity to Aedes aegypti larvae (mortality) 48 hours, 400 μM, L3 larvae, three independent experiments
[26] = 48 h, read-out: percent mortality 48 hr, 400 uM, L3 larvae, per scoring time
[27] = 72 h, read-out: Cumulative % Mortality (72 hrs), 400 uM, L3 larvae
[28] = 72 h, read-out: Toxicity to Aedes aegypti larvae (mortality) 72 hours, 400 μM, L3 larvae, three independent experiments
[29] = 72 h, read-out: percent mortality 72 hr, 400 uM, L3 larvae, per scoring time
[30] = 10 μM agonist, transient expression
[31] = 10 μM antagonist with 1 μM dopamine

T2 sequence (A0ACM8DGL0 entry or part of it): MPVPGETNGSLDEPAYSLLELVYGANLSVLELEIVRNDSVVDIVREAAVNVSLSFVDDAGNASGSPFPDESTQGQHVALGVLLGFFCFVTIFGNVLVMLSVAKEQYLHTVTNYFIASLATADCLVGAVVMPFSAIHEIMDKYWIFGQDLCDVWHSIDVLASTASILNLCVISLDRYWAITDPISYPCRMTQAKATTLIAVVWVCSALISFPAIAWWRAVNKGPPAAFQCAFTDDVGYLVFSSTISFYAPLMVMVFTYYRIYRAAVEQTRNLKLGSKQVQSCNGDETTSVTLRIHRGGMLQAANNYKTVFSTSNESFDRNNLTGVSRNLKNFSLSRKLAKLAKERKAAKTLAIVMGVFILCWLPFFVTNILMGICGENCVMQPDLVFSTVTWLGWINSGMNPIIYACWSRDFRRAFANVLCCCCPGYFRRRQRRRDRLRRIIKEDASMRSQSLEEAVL
T3 sequence (H6D5H2 entry or part of it): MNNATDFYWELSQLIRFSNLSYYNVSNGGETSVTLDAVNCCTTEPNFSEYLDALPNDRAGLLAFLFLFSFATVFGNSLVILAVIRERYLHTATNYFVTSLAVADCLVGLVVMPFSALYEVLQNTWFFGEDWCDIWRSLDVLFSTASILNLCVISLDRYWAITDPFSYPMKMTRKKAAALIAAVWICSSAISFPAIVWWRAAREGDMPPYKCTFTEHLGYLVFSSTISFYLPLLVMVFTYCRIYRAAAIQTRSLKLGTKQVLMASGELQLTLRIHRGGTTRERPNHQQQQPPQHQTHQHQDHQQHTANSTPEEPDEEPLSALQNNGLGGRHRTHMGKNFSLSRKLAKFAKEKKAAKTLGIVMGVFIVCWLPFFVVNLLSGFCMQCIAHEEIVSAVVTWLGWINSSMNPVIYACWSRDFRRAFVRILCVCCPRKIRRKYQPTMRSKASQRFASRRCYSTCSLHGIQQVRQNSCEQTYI
AaDOP1, sequence (H6D5H1 entry or part of it): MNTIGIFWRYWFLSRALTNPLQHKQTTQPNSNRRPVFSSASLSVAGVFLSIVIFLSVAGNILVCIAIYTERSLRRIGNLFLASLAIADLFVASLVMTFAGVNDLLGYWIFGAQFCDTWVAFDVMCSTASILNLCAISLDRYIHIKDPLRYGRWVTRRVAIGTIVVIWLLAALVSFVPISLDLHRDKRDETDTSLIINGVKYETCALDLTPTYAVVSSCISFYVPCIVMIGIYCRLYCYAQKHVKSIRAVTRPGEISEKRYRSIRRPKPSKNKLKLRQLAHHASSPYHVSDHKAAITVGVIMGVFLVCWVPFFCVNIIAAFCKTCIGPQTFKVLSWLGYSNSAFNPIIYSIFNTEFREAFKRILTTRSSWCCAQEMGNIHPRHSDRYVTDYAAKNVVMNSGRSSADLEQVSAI

| Structure (SMILES) | IC50 [4] [nM] | LT50 [5] [min] | % Mortality 24 hrs [6] [%] | % Mortality 48 hrs [6] [%] | % Mortality 72 hrs [6] [%] | % Mortality 120 hrs [6] [%] | % Mortality 240 hrs [6] [%] | % Mortality 24 hrs [8] [%] | % Mortality 48 hrs [8] [%] | % Mortality 72 hrs [8] [%] | % Mortality 120 hrs [8] [%] | mortality at 400 µM [10, 18] [%] | mortality at 400 µM [10, 19] [%] | mortality at 400 µM [10, 20] [%] | mortality at 400 µM [10, 21] [%] | mortality at 400 µM [10, 22] [%] | mortality at 400 µM [10, 23] [%] | mortality at 400 µM [10, 24] [%] | mortality at 400 µM [10, 25] [%] | mortality at 400 µM [10, 26] [%] | also measured |
| --- | --- | --- | --- | --- | --- | --- | --- | --- | --- | --- | --- | --- | --- | --- | --- | --- | --- | --- | --- | --- | --- |
| NCCc1c[nH]c2ccc(O)cc12 [Serotonin, 5-hydroxytryptamine] | – | – | – | – | – | – | – | – | – | – | – | – | – | – | – | – | – | – | – | – | Stimulatory response (fold-over-basal) Isdop1 [1, 17]: 1.06 ± 0.08 fold-over-basal; Stimulatory response (fold-over-basal) Isdop2 [2, 17]: 1.52 ± 0.20 fold-over-basal |
| CCNC(=O)N1CCN(CCCC(c2ccc(F)cc2)c2ccc(F)cc2)CC1 [Amperozide, 4-[4,4-bis(4-fluorophenyl)butyl]-N-ethylpiperazine-1-carboxamide] | 570 ± 110 | 42 | 0 | 0 | 0 | 5 | 5 | 0 | 0 | 3 | 7 | > 70 | 90 | 0 | 0 | 0 | 0 | 0 | 93 | 0 | % of the SCH23390 effect ([3]; 10 μM compound, 300 nM dopamine, quadruplicate): 83%; % inhibition of DA activity (Aedes cell-based assay screen) ([3]; LOPAC1280 screen hits): 83%; mortality of adult termites [7]: 70-100%; inhibition at 10 µM [9]: 69%; mortality at 400 µM [10, 27]: 100%; mortality at 400 µM [10, 28]: 93%; mortality at 400 µM [10, 29]: 0% |
| Oc1cc2c(c(Cl)c1O)CCNCC2c1ccccc1 (stereo not shown) [SKF 81297] | – | – | – | – | – | – | – | – | – | – | – | – | – | – | – | – | – | – | – | – | EC50 [11]: 24 ± 7 nM; EC50 ([12]; ≧10 μM = lacks intrinsic activity): ≥ 10000 nM; intracellular cAMP compared to basal, Isdop1 [1, 30]: modest, yet significant increases; increase in cAMP, Isdop2 [2, 30]: ca. two-fold-over-basal; % of DHX [13]: 38% |
| Oc1cc2c(cc1O)[C@H]1c3ccccc3CN[C@@H]1CC2 (racemic) [Dihydrexidine] | – | – | – | – | – | – | – | – | – | – | – | – | – | – | – | – | – | – | – | – | EC50 [11]: 6.9 ± 1.5 nM; EC50 [12]: 290 ± 54 nM; % of DHX [13]: 116% |
| CC(C)(C)[C@]1(O)CCN2CC3c4ccccc4CCc4cccc(c43)[C@@H]2C1 (single isomer, unassigned; (+)) [(+)-Butaclamol, 3-(1,1-dimethylethyl)-2,3,4,4a,8,9,13b,14-octahydro-1H-benzo[6,7]cyclohepta[1,2,3-de]pyrido[2,1-a]isoquinolin-3-ol] | – | – | – | – | – | – | – | – | – | – | – | – | – | – | – | – | – | – | – | – | effect on dopamine-stimulated cAMP, Isdop1 [1, 31]: did not cause a similar response; effect on dopamine-stimulated cAMP, Isdop2 [2, 31]: antagonistic effects; IC50 [14]: 3500 nM; IC50 [15]: 320 nM |
| CN1CC2c3ccccc3Oc3ccc(Cl)cc3C2C1 (stereo not shown) [Asenapine] | 0.3 ± 0.06 | 30 | 5 | 5 | 10 | 10 | 10 | 17 | 20 | 27 | 27 | > 70 | 70 | 20 | 10 | 0 | 0 | 0 | 100 | 0 | LC50 ([5]; Aedes aegypti): 40000 nM; Toxicity to Aedes aegypti larvae (mortality) 24 hours [16]: 100%; mortality at 400 µM [10, 27]: 100%; mortality at 400 µM [10, 28]: 100%; mortality at 400 µM [10, 29]: 0%; mortality at 400 µM ([10]; […], read-out: percent mortality […], 400 uM, L3 larvae, per scoring time): 0% |
